PubChem BioAssay (NCI)
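Values below derive from 48-hour exposures of cells grown in 96-well plates, with endpoints linearly interpolated between the two concentrations bracketing the appropriate inhibition level. GI50 marks 50% less growth. TGI: concentration producing complete growth inhibition.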

Legend:
Assay in all cases: NCI tumour cell line growth inhibition, 48 h
786-0 renal = test system: 786-0 renal
A498 renal = test system: A498 renal
A549 NSCLC = test system: A549 NSCLC
ACHN renal = test system: ACHN renal
BT-549 breast = test system: BT-549 breast
CCRF-CEM leukemia = test system: CCRF-CEM leukemia
DU-145 prostate = test system: DU-145 prostate
EKVX NSCLC = test system: EKVX NSCLC
HCT-116 colon = test system: HCT-116 colon
HOP-62 NSCLC = test system: HOP-62 NSCLC
HOP-92 NSCLC = test system: HOP-92 NSCLC
HT29 colon = test system: HT29 colon
IGROV1 ovarian = test system: IGROV1 ovarian
K-562 leukemia = test system: K-562 leukemia
KM12 colon = test system: KM12 colon
LOX IMVI melanoma = test system: LOX IMVI melanoma
M14 melanoma = test system: M14 melanoma
MDA-MB-435 = test system: MDA-MB-435
NCI-H226 lung = test system: NCI-H226 lung
NCI-H23 lung = test system: NCI-H23 lung
NCI-H460 lung = test system: NCI-H460 lung
NCI-H522 lung = test system: NCI-H522 lung
OVCAR-3 ovarian = test system: OVCAR-3 ovarian
OVCAR-4 ovarian = test system: OVCAR-4 ovarian
OVCAR-8 ovarian = test system: OVCAR-8 ovarian
PC-3 prostate = test system: PC-3 prostate
RXF 393 renal = test system: RXF 393 renal
SF-268 CNS = test system: SF-268 CNS
SF-539 CNS = test system: SF-539 CNS
SK-MEL-2 melanoma = test system: SK-MEL-2 melanoma
SK-MEL-28 melanoma = test system: SK-MEL-28 melanoma
SK-MEL-5 melanoma = test system: SK-MEL-5 melanoma
SK-OV-3 ovarian = test system: SK-OV-3 ovarian
SN12C renal = test system: SN12C renal
SNB-75 CNS = test system: SNB-75 CNS
SW-620 colon = test system: SW-620 colon
T-47D breast = test system: T-47D breast
TK-10 renal = test system: TK-10 renal
U251 CNS = test system: U251 CNS
UACC-257 melanoma = test system: UACC-257 melanoma
UACC-62 melanoma = test system: UACC-62 melanoma
UO-31 renal = test system: UO-31 renal
CAKI-1 renal = test system: CAKI-1 renal
COLO 205 colon = test system: COLO 205 colon
HCC-2998 colon = test system: HCC-2998 colon
HCT-15 colon = test system: HCT-15 colon
MALME-3M melanoma = test system: MALME-3M melanoma
MCF7 breast = test system: MCF7 breast
MDA-MB-231 breast = test system: MDA-MB-231 breast
OVCAR-5 ovarian = test system: OVCAR-5 ovarian
RPMI-8226 leukemia = test system: RPMI-8226 leukemia
SF-295 CNS = test system: SF-295 CNS
SNB-19 CNS = test system: SNB-19 CNS

Compound C=CCN1C(=O)c2cccc3c(N4CCOCC4)ccc(c23)C1=O has a GI50 (786-0 renal) of 0.263 µM, a TGI (786-0 renal) of 32.7 µM and a GI50 (A498 renal) of 13.8 nM. It also gave a TGI (A498 renal) of 0.0421 µM, a GI50 (A549 NSCLC) of 102 nM and a TGI (A549 NSCLC) of 595 nM. The GI50 (ACHN renal) was 0.113 µM, the TGI (ACHN renal) was > 100 µM and the GI50 (BT-549 breast) was 0.0234 µM. For the same compound, the TGI (BT-549 breast) was 294 nM, the GI50 (CCRF-CEM leukemia) was 45.2 nM and the TGI (CCRF-CEM leukemia) was > 100 µM. It also gave a GI50 (DU-145 prostate) of 63.8 nM, a TGI (DU-145 prostate) of 13.6 µM and a GI50 (EKVX NSCLC) of 40.5 nM. For the same compound, the TGI (EKVX NSCLC) was 979 nM, the GI50 (HCT-116 colon) was 96.1 nM and the TGI (HCT-116 colon) was 428 nM. For the same compound, the GI50 (HOP-62 NSCLC) was 101 nM, the TGI (HOP-62 NSCLC) was > 100 µM and the TGI (HOP-92 NSCLC) was 0.0416 µM. The GI50 (HT29 colon) was 65 nM, the TGI (HT29 colon) was 11.1 µM and the GI50 (IGROV1 ovarian) was 11.4 nM. The TGI (IGROV1 ovarian) was 91.5 nM, the GI50 (K-562 leukemia) was 202 nM and the TGI (K-562 leukemia) was > 100 µM. The GI50 (KM12 colon) was 131 nM, the TGI (KM12 colon) was 60.9 µM and the GI50 (LOX IMVI melanoma) was 23 nM. The TGI (LOX IMVI melanoma) was 159 nM, the GI50 (M14 melanoma) was 42.9 nM and the TGI (M14 melanoma) was > 100 µM. For the same compound, the GI50 (MDA-MB-435) was 65.9 nM, the TGI (MDA-MB-435) was 22.2 µM and the GI50 (NCI-H226 lung) was 0.167 µM. The TGI (NCI-H226 lung) was 1750 nM, the GI50 (NCI-H23 lung) was 0.126 µM and the TGI (NCI-H23 lung) was > 100 µM. It also gave a GI50 (NCI-H460 lung) of 272 nM, a TGI (NCI-H460 lung) of 12.7 µM and a GI50 (NCI-H522 lung) of 206 nM. For the same compound, the TGI (NCI-H522 lung) was 12.3 µM, the GI50 (OVCAR-3 ovarian) was 11.8 nM and the TGI (OVCAR-3 ovarian) was 142 nM. The GI50 (OVCAR-4 ovarian) was 0.31 µM, the TGI (OVCAR-4 ovarian) was > 100 µM and the GI50 (OVCAR-8 ovarian) was 229 nM. The TGI (OVCAR-8 ovarian) was > 100 µM, the GI50 (PC-3 prostate) was 128 nM and the TGI (PC-3 prostate) was 748 nM. For the same compound, the GI50 (RXF 393 renal) was 16.2 nM, the TGI (RXF 393 renal) was 0.128 µM and the GI50 (SF-268 CNS) was 104 nM. It also gave a TGI (SF-268 CNS) of 548 nM, a GI50 (SF-539 CNS) of 29.3 nM and a TGI (SF-539 CNS) of 0.376 µM. It also gave a GI50 (SK-MEL-2 melanoma) of 146 nM, a TGI (SK-MEL-2 melanoma) of 675 nM and a GI50 (SK-MEL-28 melanoma) of 25.4 nM. The TGI (SK-MEL-28 melanoma) was 492 nM, the GI50 (SK-MEL-5 melanoma) was 27.4 nM and the TGI (SK-MEL-5 melanoma) was 127 nM. For the same compound, the GI50 (SK-OV-3 ovarian) was 49.8 nM, the TGI (SK-OV-3 ovarian) was 0.667 µM and the GI50 (SN12C renal) was 79.6 nM. For the same compound, the TGI (SN12C renal) was > 100 µM, the TGI (SNB-75 CNS) was 40.6 µM and the GI50 (SW-620 colon) was 249 nM. For the same compound, the TGI (SW-620 colon) was 12.5 µM, the GI50 (T-47D breast) was 0.0148 µM and the TGI (T-47D breast) was 11.5 µM. It also gave a GI50 (TK-10 renal) of 62.3 nM, a TGI (TK-10 renal) of 791 nM and a GI50 (U251 CNS) of 59.2 nM. For the same compound, the TGI (U251 CNS) was 606 nM, the GI50 (UACC-257 melanoma) was 0.0685 µM and the TGI (UACC-257 melanoma) was 642 nM. For the same compound, the GI50 (UACC-62 melanoma) was 188 nM, the TGI (UACC-62 melanoma) was 613 nM and the GI50 (UO-31 renal) was 13.4 nM. It also gave a TGI (UO-31 renal) of 322 nM.
With Cc1ccc(S(=O)(=O)c2ccccc2)cc1 the GI50 (786-0 renal) was 8.08 µM, the TGI (786-0 renal) was > 100 µM and the GI50 (A498 renal) was 2800 nM. The TGI (A498 renal) was 29.5 µM, the GI50 (A549 NSCLC) was 4270 nM and the TGI (A549 NSCLC) was > 100000 nM. The GI50 (ACHN renal) was 11.7 µM, the TGI (ACHN renal) was > 100 µM and the GI50 (BT-549 breast) was 8.05 µM. For the same compound, the TGI (BT-549 breast) was > 100000 nM, the GI50 (CAKI-1 renal) was 2390 nM and the TGI (CAKI-1 renal) was > 100 µM. It also gave a GI50 (COLO 205 colon) of 2710 nM, a TGI (COLO 205 colon) of 6.3 µM and a GI50 (DU-145 prostate) of 2780 nM. For the same compound, the TGI (DU-145 prostate) was 7.9 µM, the GI50 (EKVX NSCLC) was 3870 nM and the TGI (EKVX NSCLC) was > 100000 nM. For the same compound, the GI50 (HCC-2998 colon) was 6.82 µM, the TGI (HCC-2998 colon) was 64.4 µM and the GI50 (HCT-116 colon) was 3860 nM. The TGI (HCT-116 colon) was > 100000 nM, the GI50 (HCT-15 colon) was 4.91 µM and the TGI (HCT-15 colon) was > 100 µM. For the same compound, the GI50 (HOP-92 NSCLC) was 2620 nM, the TGI (HOP-92 NSCLC) was 26.2 µM and the GI50 (HT29 colon) was 2700 nM. The TGI (HT29 colon) was 48.9 µM, the GI50 (IGROV1 ovarian) was 3970 nM and the TGI (IGROV1 ovarian) was > 100000 nM. For the same compound, the GI50 (KM12 colon) was 3450 nM, the TGI (KM12 colon) was 68.5 µM and the GI50 (LOX IMVI melanoma) was 5050 nM. For the same compound, the TGI (LOX IMVI melanoma) was > 100000 nM, the GI50 (MALME-3M melanoma) was 4.76 µM and the TGI (MALME-3M melanoma) was > 100 µM. The GI50 (MCF7 breast) was 4 µM, the TGI (MCF7 breast) was > 100 µM and the GI50 (MDA-MB-231 breast) was 3.63 µM. The TGI (MDA-MB-231 breast) was > 100 µM, the GI50 (MDA-MB-435) was 834 nM and the TGI (MDA-MB-435) was 5.06 µM. The GI50 (NCI-H226 lung) was 16.6 µM, the TGI (NCI-H226 lung) was > 100000 nM and the GI50 (NCI-H23 lung) was 6.14 µM. For the same compound, the TGI (NCI-H23 lung) was > 100 µM, the GI50 (NCI-H460 lung) was 3260 nM and the TGI (NCI-H460 lung) was 21.1 µM. For the same compound, the GI50 (NCI-H522 lung) was 1820 nM, the TGI (NCI-H522 lung) was 4.68 µM and the GI50 (OVCAR-3 ovarian) was 2320 nM. The TGI (OVCAR-3 ovarian) was 5020 nM, the GI50 (OVCAR-4 ovarian) was 22.2 µM and the TGI (OVCAR-4 ovarian) was > 100 µM. The GI50 (OVCAR-5 ovarian) was 8.44 µM, the TGI (OVCAR-5 ovarian) was > 100 µM and the GI50 (OVCAR-8 ovarian) was 5770 nM. For the same compound, the TGI (OVCAR-8 ovarian) was > 100 µM, the GI50 (PC-3 prostate) was 4240 nM and the TGI (PC-3 prostate) was > 100000 nM. It also gave a GI50 (RPMI-8226 leukemia) of 3.4 µM, a TGI (RPMI-8226 leukemia) of 9.87 µM and a GI50 (RXF 393 renal) of 2620 nM. For the same compound, the TGI (RXF 393 renal) was 7.54 µM, the GI50 (SF-268 CNS) was 5820 nM and the TGI (SF-268 CNS) was > 100000 nM. The GI50 (SF-295 CNS) was 2550 nM, the TGI (SF-295 CNS) was 9.03 µM and the GI50 (SF-539 CNS) was 2550 nM. The TGI (SF-539 CNS) was 7 µM, the GI50 (SK-MEL-2 melanoma) was 3010 nM and the TGI (SK-MEL-2 melanoma) was > 100000 nM. For the same compound, the GI50 (SK-MEL-28 melanoma) was 5650 nM, the TGI (SK-MEL-28 melanoma) was > 100000 nM and the GI50 (SK-MEL-5 melanoma) was 4010 nM. The TGI (SK-MEL-5 melanoma) was > 100000 nM, the GI50 (SK-OV-3 ovarian) was 3890 nM and the TGI (SK-OV-3 ovarian) was 42.2 µM. The GI50 (SN12C renal) was 5370 nM, the TGI (SN12C renal) was > 100 µM and the GI50 (SNB-19 CNS) was 4.73 µM. For the same compound, the TGI (SNB-19 CNS) was > 100 µM, the GI50 (SW-620 colon) was 3200 nM and the TGI (SW-620 colon) was > 100 µM. The GI50 (T-47D breast) was 6.43 µM, the TGI (T-47D breast) was > 100 µM and the GI50 (TK-10 renal) was 5650 nM. The TGI (TK-10 renal) was > 100000 nM, the GI50 (U251 CNS) was 4320 nM and the TGI (U251 CNS) was > 100000 nM. The GI50 (UACC-257 melanoma) was 42 µM, the TGI (UACC-257 melanoma) was > 100000 nM and the GI50 (UACC-62 melanoma) was 4610 nM. For the same compound, the TGI (UACC-62 melanoma) was > 100000 nM, the GI50 (UO-31 renal) was 5700 nM and the TGI (UO-31 renal) was > 100000 nM.
